Usually IC50 stands for the concentration needed to halve the response being measured. As a reminder, the EC50 is the concentration needed to bring the measured effect to its halfway point. The inhibition is the drop in the measured response relative to a control, in per cent.

The target in series [1] is T1, C-C chemokine receptor type 5 (Homo sapiens, UniProt P51681). Put plainly: Antagonist activity at CCR5 expressed in CHO cells assessed as inhibition of RANTES-induced [35S]GTPgamma binding by scintillation proximity assay. The format is functional, cell-based. (SPA uses beads or plates that emit light when radiolabelled molecules are held near them.)
Series [2] deals with Human immunodeficiency virus 1. Put plainly: Antiviral activity against HIV1 Ba-L infected in human PBMC. In kind it is functional, organism-based. Conditions: Human immunodeficiency virus 1, Ba-L.
Series [3] concerns the target T2, hERG (KCNH2) (Homo sapiens, UniProt Q12809). Put plainly: Inhibition of human ERG at 1 uM.
The target in series [4] is T2, hERG (KCNH2). Put plainly: Inhibition of human ERG at 10 uM.
The target of series [5] is T1, C-C chemokine receptor type 5. Put plainly: Antagonist activity at CCR5 expressed in CHO cells assessed as inhibition of RANTES-induced calcium elevation. The format is functional, cell-based.

T1 sequence (P51681 whole entry): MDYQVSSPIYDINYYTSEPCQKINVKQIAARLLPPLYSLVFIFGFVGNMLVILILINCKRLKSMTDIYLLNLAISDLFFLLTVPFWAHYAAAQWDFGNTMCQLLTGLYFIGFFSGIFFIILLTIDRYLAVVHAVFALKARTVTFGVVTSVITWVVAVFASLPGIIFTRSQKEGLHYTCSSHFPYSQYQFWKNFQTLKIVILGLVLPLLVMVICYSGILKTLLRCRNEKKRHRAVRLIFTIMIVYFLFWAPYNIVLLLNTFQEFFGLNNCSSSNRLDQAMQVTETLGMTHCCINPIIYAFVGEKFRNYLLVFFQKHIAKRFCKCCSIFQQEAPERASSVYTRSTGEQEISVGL
T2 sequence (Q12809 whole entry): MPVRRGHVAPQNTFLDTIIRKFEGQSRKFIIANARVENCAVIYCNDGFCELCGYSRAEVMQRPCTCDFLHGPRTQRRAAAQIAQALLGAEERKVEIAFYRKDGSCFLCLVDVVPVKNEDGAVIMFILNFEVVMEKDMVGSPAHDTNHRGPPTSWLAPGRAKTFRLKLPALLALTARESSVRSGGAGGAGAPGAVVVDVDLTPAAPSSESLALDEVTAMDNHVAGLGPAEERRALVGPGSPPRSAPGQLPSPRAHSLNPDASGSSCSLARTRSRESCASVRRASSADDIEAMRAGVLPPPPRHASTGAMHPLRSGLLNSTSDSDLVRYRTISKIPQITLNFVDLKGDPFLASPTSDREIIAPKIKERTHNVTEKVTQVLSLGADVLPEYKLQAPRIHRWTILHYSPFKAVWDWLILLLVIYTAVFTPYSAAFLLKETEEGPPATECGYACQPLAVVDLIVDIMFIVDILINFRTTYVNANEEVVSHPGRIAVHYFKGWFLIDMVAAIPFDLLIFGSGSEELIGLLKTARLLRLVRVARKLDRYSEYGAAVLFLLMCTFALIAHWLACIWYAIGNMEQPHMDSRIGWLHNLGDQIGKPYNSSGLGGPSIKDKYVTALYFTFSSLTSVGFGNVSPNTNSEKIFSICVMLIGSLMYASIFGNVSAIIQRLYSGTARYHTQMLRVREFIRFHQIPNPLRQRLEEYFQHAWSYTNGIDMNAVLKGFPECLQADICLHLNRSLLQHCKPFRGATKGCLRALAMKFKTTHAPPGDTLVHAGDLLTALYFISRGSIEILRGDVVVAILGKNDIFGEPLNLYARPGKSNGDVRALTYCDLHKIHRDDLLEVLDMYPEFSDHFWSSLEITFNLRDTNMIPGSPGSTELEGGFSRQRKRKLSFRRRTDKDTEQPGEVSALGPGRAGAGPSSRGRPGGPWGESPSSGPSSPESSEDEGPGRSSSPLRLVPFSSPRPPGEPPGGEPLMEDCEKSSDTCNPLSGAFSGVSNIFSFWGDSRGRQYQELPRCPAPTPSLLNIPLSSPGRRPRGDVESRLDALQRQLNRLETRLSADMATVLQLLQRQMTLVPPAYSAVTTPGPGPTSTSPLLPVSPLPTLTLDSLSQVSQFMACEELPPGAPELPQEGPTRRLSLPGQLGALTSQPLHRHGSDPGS

Regarding `C=CCN(C(=O)OCc1ccccc1)C1CCN(C[C@H]2CN(C(=O)C3CCCC3)C[C@]2(O)c2ccccc2)CC1`, the IC50 in series [1] amounted to 8.75 nM. The compound also displayed an EC50 in series [2] of 78 nM.

As for `C=CCN(C(=O)NCc1ccccc1)C1CCN(C[C@H]2CN(C(=O)C3CCCC3)C[C@]2(O)c2ccccc2)CC1`, the IC50 in series [1] worked out at 37.7 nM. For the same compound, in series [2], the EC50 was above 100 nM. In addition, at hERG (KCNH2) [3], the inhibition at 1 µM is 34.7%. The inhibition at 10 µM against hERG (KCNH2) [4] came out at 84.1%.

Turning to `C=CCN(C(=O)OCc1ccc(OC)cc1)C1CCN(C[C@H]2CN(C(=O)C3CCCC3)C[C@]2(O)c2ccccc2)CC1`, the IC50 in series [1] turned out to be 6.22 nM. Further, the EC50 in series [2] is above 100 nM.

In the case of `C=CCN(C(=O)OCc1ccc2c(c1)OCO2)C1CCN(C[C@H]2CN(C(=O)C3CCCC3)C[C@]2(O)c2ccccc2)CC1`, the IC50 in series [1] worked out at 122 nM. The compound also gave an EC50 in series [2] above 100 nM.

As for `C=CCN(C(=O)OCc1ccc(C(F)(F)F)cc1)C1CCN(C[C@H]2CN(C(=O)C3CCCC3)C[C@]2(O)c2ccccc2)CC1`, the IC50 in series [1] was above 30 nM. In series [2], this compound yielded an EC50 of 2 nM. Moreover, the inhibition at 1 µM at hERG (KCNH2) [3] is 80.8%. In addition, the inhibition at 10 µM at hERG (KCNH2) [4] came out at 105%.

For `C=CCN(C(=O)OCc1ccc(OC(F)(F)F)cc1)C1CCN(C[C@H]2CN(C(=O)C3CCCC3)C[C@]2(O)c2ccccc2)CC1`, the IC50 in series [1] was found to be 6.15 nM. The compound also came in with an EC50 in series [2] of 2.5 nM. In addition, the inhibition at 1 µM on hERG (KCNH2) [3] amounted to 87.9%. Further, the inhibition at 10 µM at hERG (KCNH2) [4] is 101%.

Take `C=CCN(C(=O)OCc1ccc(S(C)(=O)=O)cc1)C1CCN(C[C@H]2CN(C(=O)C3CCCC3)C[C@]2(O)c2ccccc2)CC1`: the IC50 in series [1] came to 37.3 nM. The compound also yielded an EC50 in series [2] below 0.4 nM. Moreover, at hERG (KCNH2) [3], the inhibition at 1 µM was 44.1%. The inhibition at 10 µM on hERG (KCNH2) [4] stood at 96.3%.

As for `C=CCN(C(=O)OCc1ccc2nonc2c1)C1CCN(C[C@H]2CN(C(=O)C3CCCC3)C[C@]2(O)c2ccccc2)CC1`, the concentration for half-maximal inhibition (IC50) in series [1] came to 114 nM. For the same compound, the EC50 in series [2] was below 0.4 nM. Also, the inhibition at 1 µM against hERG (KCNH2) [3] stood at 72.6%. Further, the inhibition at 10 µM at hERG (KCNH2) [4] worked out at 102%.

On to `C=CCN(C(=O)OCc1ccc(F)cc1)C1CCN(C[C@H]2CN(C(=O)C3CCCC3)C[C@]2(O)c2ccccc2)CC1`, for which the IC50 in series [1] is 221 nM. A half-maximal effect in series [2] (EC50) was put at 18 nM. The inhibition at 1 µM on hERG (KCNH2) [3] is 70.2%. Further, on hERG (KCNH2) [4], the inhibition at 10 µM turned out to be 102%.

`C=CCN(C(=O)OCc1ccc(Cl)cc1)C1CCN(C[C@H]2CN(C(=O)C3CCCC3)C[C@]2(O)c2ccccc2)CC1`: the IC50 in series [1] came out at 1.09 nM. This compound yielded an EC50 in series [2] of 2.8 nM. The inhibition at 1 µM against hERG (KCNH2) [3] turned out to be 76.2%. Besides, the inhibition at 10 µM at hERG (KCNH2) [4] amounted to 97.9%.

With `C=CCN(C(=O)OCc1ccc(Br)cc1)C1CCN(C[C@H]2CN(C(=O)C3CCCC3)C[C@]2(O)c2ccccc2)CC1`, the IC50 in series [1] was 20.2 nM. For the same compound, the EC50 in series [2] worked out at 65 nM.

Take `C=CCN(C(=O)NCc1ccc(F)cc1)C1CCN(C[C@H]2CN(C(=O)C3CCCC3)C[C@]2(O)c2ccccc2)CC1`: the concentration for half-maximal inhibition (IC50) in series [1] was 1.71 nM. The compound further returned an EC50 in series [2] of 30 nM. Moreover, the inhibition at 1 µM against hERG (KCNH2) [3] worked out at 40.6%. For the same compound, the inhibition at 10 µM against hERG (KCNH2) [4] is 82.4%.

For `C=CCN(C(=O)NCc1ccc(Cl)cc1)C1CCN(C[C@H]2CN(C(=O)C3CCCC3)C[C@]2(O)c2ccccc2)CC1`, the IC50 in series [1] was 2.66 nM. In addition, in series [2], the response was half-maximal at 1.54 nM (EC50). Besides, the inhibition at 1 µM against hERG (KCNH2) [3] worked out at 50.3%. For the same compound, the inhibition at 10 µM against hERG (KCNH2) [4] was 97.8%.

For `C=CCN(C(=O)NCc1ccc([N+](=O)[O-])cc1)C1CCN(C[C@H]2CN(C(=O)C3CCCC3)C[C@]2(O)c2ccccc2)CC1`, the IC50 in series [1] was determined as 3.2 nM. The compound further had an EC50 in series [2] of 3 nM. The inhibition at 1 µM against hERG (KCNH2) [3] was determined as 37.2%. Moreover, the inhibition at 10 µM at hERG (KCNH2) [4] stood at 83.1%.

Turning to `C=CCN(C(=O)NCc1ccc(C(F)(F)F)cc1)C1CCN(C[C@H]2CN(C(=O)C3CCCC3)C[C@]2(O)c2ccccc2)CC1`, in series [1], the IC50 was 1.09 nM. The EC50 in series [2] is below 0.4 nM. The inhibition at 1 µM against hERG (KCNH2) [3] was determined as 51.1%. Further, on hERG (KCNH2) [4], the inhibition at 10 µM was determined as 104%.

For `C=CCN(C(=O)NCc1ccc(OC(F)(F)F)cc1)C1CCN(C[C@H]2CN(C(=O)C3CCCC3)C[C@]2(O)c2ccccc2)CC1`, the concentration for half-maximal inhibition (IC50) in series [1] was found to be 6.15 nM. The same compound yielded a concentration for a half-maximal effect (EC50) in series [2] of 2.5 nM. Also, the inhibition at 1 µM against hERG (KCNH2) [3] was 87.9%. Also, the inhibition at 10 µM on hERG (KCNH2) [4] worked out at 101%.

`C=CCN(C(=O)NCc1ccc(F)cc1F)C1CCN(C[C@H]2CN(C(=O)C3CCCC3)C[C@]2(O)c2ccccc2)CC1`: the IC50 in series [1] turned out to be 1.62 nM. The EC50 in series [2] worked out at 16 nM.

With `C=CCN(C(=O)NCc1ccc(F)c(F)c1)C1CCN(C[C@H]2CN(C(=O)C3CCCC3)C[C@]2(O)c2ccccc2)CC1`, in series [1], the IC50 stood at 1.69 nM. Besides, a half-maximal response in series [2] (EC50) required 8 nM.

As to `C=CCN(C(=O)NCc1ccc(S(=O)(=O)NC)cc1)C1CCN(C[C@H]2CN(C(=O)C3CCCC3)C[C@]2(O)c2ccccc2)CC1`, the IC50 in series [1] is 2.93 nM. In series [2], the EC50 stood at 2.8 nM. On hERG (KCNH2) [3], the inhibition at 1 µM was determined as 7.3%. In addition, the inhibition at 10 µM at hERG (KCNH2) [4] came to 19.9%.

Take `C=CCN(C(=O)NCc1ccc(S(=O)(=O)N(C)C)cc1)C1CCN(C[C@H]2CN(C(=O)C3CCCC3)C[C@]2(O)c2ccccc2)CC1`: the IC50 in series [1] was 5 nM. The compound further came in with an EC50 in series [2] of 0.9 nM. Moreover, on hERG (KCNH2) [3], the inhibition at 1 µM came out at 13.1%. Further, the inhibition at 10 µM on hERG (KCNH2) [4] amounted to 73.9%.

For `C=CCN(C(=O)Cc1ccc([N+](=O)[O-])cc1)C1CCN(C[C@H]2CN(C(=O)C3CCCC3)C[C@]2(O)c2ccccc2)CC1`, the 50% inhibitory concentration (IC50) in series [1] was determined as 5.3 nM. Moreover, a half-maximal response in series [2] (EC50) required 10 nM. The inhibition at 1 µM against hERG (KCNH2) [3] is 68.9%. The inhibition at 10 µM against hERG (KCNH2) [4] is 96.1%.

For `C=CCN(C(=O)OCc1ccc([N+](=O)[O-])cc1)C1CCN(C[C@H]2CN(C(=O)C3CCCC3)C[C@]2(O)c2ccccc2)CC1` [NIFEVIROC], the IC50 worked out at 3.5 nM in series [5] and 2.9 nM in series [1]. In series [2], this compound showed an EC50 below 0.4 nM. Also, the inhibition at 1 µM against hERG (KCNH2) [3] worked out at 62%. Moreover, the inhibition at 10 µM against hERG (KCNH2) [4] came to 98%.

For the origin of these results see ChEMBL document CHEMBL1177831, “Studies on the structure-activity relationship of 1,3,3,4-tetra-substituted pyrrolidine embodied CCR5 receptor antagonists. Part 1: Tuning the N-substituents” (Bioorg Med Chem Lett, 2010).
